Literature values as cited in patent publication EP1121935B1, “Pharmaceutical composition containing a small or medium size peptide” (Patents Exploitation Company B.V., priority 2000, dated 2001).

Key:
nasal ciliar motility = conditions: reported by Hofmann T. et al., 1998
[1] = solutions free from preservative; polystyrene, polypropylene and glass tubes; 24 hours at room temperature

Substance | effect on nasal ciliar motility (nasal ciliar motility) | loss of active principle because of the adsorption by the walls [1]
benzalkonium chloride | irreversible suppression of the nasal ciliar motility | 
1-(3-mercaptopropanoic acid)-8-D-argininevasopressin [desmopressin] |  | about the half
